{"source": "patent US20240335407A1", "about": "“PHARMACEUTICAL COMPOSITION AND USE THEREOF” (NEURODAWN PHARMACEUTICAL CO., LTD., priority 2021, published 2024)", "key": {"[1]": {"tested_on": "neuropathic pain induced by separate L5 spinal nerve ligation (SNL)", "assay": "Mechanical pain threshold (MWT) in the L5 spinal nerve ligation (SNL) model of neuropathic pain, with synergy analysis (Jin Zhengjun q, CompuSyn CI)", "format": "in vivo, Sprague-Dawley (SD) rats", "details": "Mean ± SEM"}, "[2]": {"tested_on": "neuropathic pain induced by separate L5 spinal nerve ligation (SNL)", "assay": "Mechanical pain threshold (MWT) in the L5 spinal nerve ligation (SNL) model of neuropathic pain, with synergy analysis (Jin Zhengjun q, CompuSyn CI)", "format": "in vivo, Sprague-Dawley (SD) rats", "details": "Example 1, Mean ± SEM", "experimental": "In this experiment, the model of neuropathic pain induced by separate L5 spinal nerve ligation (SNL) was adopted. Animals were anesthetized with 7% chloral hydrate (dosage: 420 mg/kg, intraperitoneal injection), and the limbs of rats were fixed in a prone position. The rats were placed under dissecting microscope with the back hair-cut off, then wiped and disinfected with alcohol. An incision about 2-3 cm long was cut on the right side of the dorsal spine, and the two spinal nerves L4 and L5 were exposed, the spinal nerve L5 was lightly ligated with 6-0 braided line to avoid damage to the contiguous spinal nerves. Double-layer suture was performed on the back incisions of the experimental animals, and disinfected with iodophor, then the experimental animals were gently put into a feeding cage, allowed to free access to movement, eating and drinking.\nMechanical withdrawal threshold (MWT) of all experimental animals was measured by mechanical automatic stimulated needle. The experimental animals were placed in a transparent plexiglass box with iron gauze at the bottom, and after acclimatization for 30 minutes, the vola of the hind limbs of the experimental animals were stimulated with a stimulated needle at a uniform speed, and the reaction threshold when rats rapidly retracted or shook their feet was recorded (as MWT), which was the mechanical pain threshold of the animals.\nThe basic mechanical pain threshold of each experimental animal was measured for 2 days […], and the basic mechanical pain threshold of experimental animals was the average of two values. […]\nThe L5-SNL model was prepared by selecting SD rats with appropriate weight, and the measurement of postoperative mechanical pain threshold was started at least 7 days after modeling. […] The experimental model animals were administered corresponding drugs or solvents, and the mechanical pain threshold of animals was measured at 0.5 h and 3 h after administration. […]"}, "[3]": {"details": "Example 1, 0.5 mg/kg intraperitoneal"}, "[4]": {"details": "Example 2, 1 mg/kg intraperitoneal"}, "[5]": {"details": "Example 2, 10 mg/kg intraperitoneal"}, "[6]": {"details": "Example 3, 3 mg/kg intraperitoneal"}, "[7]": {"details": "Example 3, 12 mg/kg intraperitoneal"}, "[8]": {"details": "Example 4, 3 mg/kg intraperitoneal"}, "[9]": {"details": "Example 4, 6 mg/kg intraperitoneal"}, "[10]": {"details": "Example 4, 12 mg/kg intraperitoneal"}, "[11]": {"details": "Example 5, 3 mg/kg intraperitoneal"}, "[12]": {"details": "Example 5, 6 mg/kg intraperitoneal"}, "[13]": {"details": "Example 6, 6 mg/kg intraperitoneal"}, "[14]": {"details": "Example 6, 7.5 mg/kg intraperitoneal"}, "[15]": {"details": "Example 6, 10 mg/kg intraperitoneal"}, "[16]": {"details": "Example 2, 20 mg/kg intraperitoneal"}, "[17]": {"details": "Example 3, 18 mg/kg intraperitoneal"}, "[18]": {"details": "Example 3, 30 mg/kg intraperitoneal"}, "[19]": {"details": "Example 4, 9 mg/kg intraperitoneal"}, "[20]": {"details": "Example 4, 18 mg/kg intraperitoneal"}, "[21]": {"details": "Example 5, 9 mg/kg intraperitoneal"}}}
{"smiles": "Nc1nc2ccc(OC(F)(F)F)cc2s1", "note": "[riluzole]", "values": [{"measurement": "pain threshold at 0.5 h after administration", "setting": "[1]; [3]", "result": "14.25 ± 0.90", "unit": "g"}, {"measurement": "pain threshold at 3 h after administration", "setting": "[1]; Example 1, 10 mg/kg intraperitoneal", "result": "19.87 ± 0.92", "unit": "g"}, {"measurement": "pain threshold at 0.5 h after administration", "setting": "[1]; [4]", "result": "14.08 ± 0.92", "unit": "g"}, {"measurement": "pain threshold at 3 h after administration", "setting": "[1]; [4]", "result": "14.01 ± 0.99", "unit": "g"}, {"measurement": "pain threshold at 0.5 h after administration", "setting": "[1]; [5]", "result": "21.79 ± 1.33", "unit": "g"}, {"measurement": "pain threshold at 3 h after administration", "setting": "[1]; [5]", "result": "20.63 ± 1.12", "unit": "g"}, {"measurement": "pain threshold at 0.5 h after administration", "setting": "[1]; [6]", "result": "15.48 ± 0.92", "unit": "g"}, {"measurement": "pain threshold at 3 h after administration", "setting": "[1]; [6]", "result": "15.16 ± 1.31", "unit": "g"}, {"measurement": "pain threshold at 0.5 h after administration", "setting": "[1]; [7]", "result": "22.54 ± 1.33", "unit": "g"}, {"measurement": "pain threshold at 3 h after administration", "setting": "[1]; [7]", "result": "21.69 ± 1.12", "unit": "g"}, {"measurement": "pain threshold at 0.5 h after administration", "setting": "[1]; [8]", "result": "15.43 ± 0.69", "unit": "g"}, {"measurement": "pain threshold at 3 h after administration", "setting": "[1]; [8]", "result": "15.03 ± 0.79", "unit": "g"}, {"measurement": "pain threshold at 0.5 h after administration", "setting": "[1]; [9]", "result": "18.47 ± 0.37", "unit": "g"}, {"measurement": "pain threshold at 3 h after administration", "setting": "[1]; [9]", "result": "17.47 ± 0.73", "unit": "g"}, {"measurement": "pain threshold at 0.5 h after administration", "setting": "[1]; [10]", "result": "22.54 ± 1.33", "unit": "g"}, {"measurement": "pain threshold at 3 h after administration", "setting": "[1]; [10]", "result": "21.69 ± 1.12", "unit": "g"}, {"measurement": "pain threshold at 0.5 h after administration", "setting": "[1]; [11]", "result": "15.35 ± 0.58", "unit": "g"}, {"measurement": "pain threshold at 3 h after administration", "setting": "[1]; [11]", "result": "14.98 ± 0.84", "unit": "g"}, {"measurement": "pain threshold at 0.5 h after administration", "setting": "[1]; [12]", "result": "18.21 ± 0.47", "unit": "g"}, {"measurement": "pain threshold at 3 h after administration", "setting": "[1]; [12]", "result": "17.45 ± 0.46", "unit": "g"}, {"measurement": "pain threshold at 0.5 h after administration", "setting": "[1]; [13]", "result": 22.96, "unit": "g"}, {"measurement": "pain threshold at 3 h after administration", "setting": "[1]; [13]", "result": "15.74 ± 0.93", "unit": "g"}, {"measurement": "pain threshold at 6 h after administration", "setting": "[1]; [13]", "result": "15.08 ± 0.77", "unit": "g"}, {"measurement": "pain threshold at 8 h after administration", "setting": "[1]; [13]", "result": "14.95 ± 0.81", "unit": "g"}, {"measurement": "pain threshold at 3 h after administration", "setting": "[1]; [14]", "result": "16.44 ± 1.07", "unit": "g"}, {"measurement": "pain threshold at 6 h after administration", "setting": "[1]; [14]", "result": "16.52 ± 1.06", "unit": "g"}, {"measurement": "pain threshold at 8 h after administration", "setting": "[1]; [14]", "result": "15.49 ± 1.18", "unit": "g"}, {"measurement": "pain threshold at 3 h after administration", "setting": "[1]; [15]", "result": "17.89 ± 1.16", "unit": "g"}, {"measurement": "pain threshold at 6 h after administration", "setting": "[1]; [15]", "result": "17.46 ± 1.23", "unit": "g"}, {"measurement": "pain threshold at 8 h after administration", "setting": "[1]; [15]", "result": "16.93 ± 1.15", "unit": "g"}, {"measurement": "pain threshold at 3 h after administration", "setting": "[2]; 0.5 mg/kg intraperitoneal, 3 h", "result": "14.04 ± 0.91", "unit": "g"}, {"measurement": "pain threshold at 0.5 h after administration", "setting": "[2]; 10 mg/kg intraperitoneal", "result": "21.56 ± 1.24", "unit": "g"}]}
{"smiles": "CC(C)C[C@H](CN)CC(=O)O", "note": "[pregabalin, (S)-3-aminomethyl-5-methylhexanoic acid]", "values": [{"measurement": "pain threshold at 0.5 h after administration", "setting": "[1]; [3]", "result": "15.48 ± 1.27", "unit": "g"}, {"measurement": "pain threshold at 3 h after administration", "setting": "[1]; [3]", "result": "15.54 ± 1.15", "unit": "g"}, {"measurement": "pain threshold at 3 h after administration", "setting": "[1]; Example 1, 25 mg/kg intraperitoneal", "result": "24.65 ± 0.34", "unit": "g"}, {"measurement": "pain threshold at 0.5 h after administration", "setting": "[1]; [4]", "result": "15.57 ± 1.04", "unit": "g"}, {"measurement": "pain threshold at 3 h after administration", "setting": "[1]; [4]", "result": "15.68 ± 1.32", "unit": "g"}, {"measurement": "pain threshold at 0.5 h after administration", "setting": "[1]; [16]", "result": "17.04 ± 0.54", "unit": "g"}, {"measurement": "pain threshold at 3 h after administration", "setting": "[1]; [16]", "result": "24.76 ± 0.73", "unit": "g"}, {"measurement": "pain threshold at 0.5 h after administration", "setting": "[1]; [6]", "result": "15.19 ± 1.31", "unit": "g"}, {"measurement": "pain threshold at 3 h after administration", "setting": "[1]; [6]", "result": "16.75 ± 1.14", "unit": "g"}, {"measurement": "pain threshold at 0.5 h after administration", "setting": "[1]; [17]", "result": "16.36 ± 1.35", "unit": "g"}, {"measurement": "pain threshold at 3 h after administration", "setting": "[1]; [17]", "result": "23.92 ± 1.30", "unit": "g"}, {"measurement": "pain threshold at 0.5 h after administration", "setting": "[1]; [18]", "result": "18.05 ± 0.73", "unit": "g"}, {"measurement": "pain threshold at 3 h after administration", "setting": "[1]; [18]", "result": "26.13 ± 0.91", "unit": "g"}, {"measurement": "pain threshold at 0.5 h after administration", "setting": "[1]; [8]", "result": "15.24 ± 0.95", "unit": "g"}, {"measurement": "pain threshold at 3 h after administration", "setting": "[1]; [8]", "result": "16.96 ± 1.22", "unit": "g"}, {"measurement": "pain threshold at 0.5 h after administration", "setting": "[1]; [19]", "result": "15.03 ± 1.21", "unit": "g"}, {"measurement": "pain threshold at 3 h after administration", "setting": "[1]; [19]", "result": "21.13 ± 1.13", "unit": "g"}, {"measurement": "pain threshold at 0.5 h after administration", "setting": "[1]; [20]", "result": "16.26 ± 0.74", "unit": "g"}, {"measurement": "pain threshold at 3 h after administration", "setting": "[1]; [20]", "result": "24.54 ± 0.56", "unit": "g"}, {"measurement": "pain threshold at 0.5 h after administration", "setting": "[1]; [11]", "result": "15.35 ± 0.57", "unit": "g"}, {"measurement": "pain threshold at 3 h after administration", "setting": "[1]; [11]", "result": "16.73 ± 1.15", "unit": "g"}, {"measurement": "pain threshold at 0.5 h after administration", "setting": "[1]; [12]", "result": "15.24 ± 1.15", "unit": "g"}, {"measurement": "pain threshold at 3 h after administration", "setting": "[1]; [12]", "result": "19.15 ± 1.21", "unit": "g"}, {"measurement": "pain threshold at 0.5 h after administration", "setting": "[1]; [21]", "result": "15.78 ± 0.83", "unit": "g"}, {"measurement": "pain threshold at 3 h after administration", "setting": "[1]; [21]", "result": "21.66 ± 0.79", "unit": "g"}, {"measurement": "pain threshold at 0.5 h after administration", "setting": "[1]; [13]", "result": "17.39 ± 1.26", "unit": "g"}, {"measurement": "pain threshold at 3 h after administration", "setting": "[1]; [13]", "result": 19.62, "unit": "g"}, {"measurement": "pain threshold at 6 h after administration", "setting": "[1]; [13]", "result": 19.49, "unit": "g"}, {"measurement": "pain threshold at 8 h after administration", "setting": "[1]; [13]", "result": 19.26, "unit": "g"}, {"measurement": "pain threshold at 0.5 h after administration", "setting": "[1]; Example 6, 20 mg/kg intraperitoneal", "result": "17.53 ± 1.33", "unit": "g"}, {"measurement": "pain threshold at 0.5 h after administration", "setting": "[1]; Example 6, 30 mg/kg intraperitoneal", "result": "18.65 ± 1.24", "unit": "g"}, {"measurement": "pain threshold at 0.5 h after administration", "setting": "[2]; 25 mg/kg intraperitoneal", "result": "17.41 ± 0.58", "unit": "g"}]}
